Measurements taken from patent US20200010482A1, “INHIBITORS OF BETA SECRETASE” (Janssen Pharmaceutica NV, priority 2017, published 2020).

Test system: brain levels of soluble Aβ42, Aβ40, Aβ38, and Aβ37
Experiment: In vivo Aβ lowering, brain levels of soluble Aβ by MSD electrochemiluminescence
Design: species or system mouse
Settings: 10 mg/kg s.c., 4 h after administration; untreated animals as control set at 100
Source text: To determine whether acute administration of an Aβ lowering agent would reduce Aβ levels in vivo, non-transgenic rodents, e.g. mice or rats were used. Animals treated with the Aβ lowering agent were examined and compared to those untreated or treated with vehicle and brain levels of soluble Aβ42, Aβ40, Aβ38, and Aβ37 were quantitated by Meso Scale Discovery's (MSD) electrochemiluminescence detection technology. Treatment periods varied from hours (h) to days and were adjusted based on the results of the Aβ lowering once a time course of onset of effect could be established.
A typical protocol for measuring Aβ lowering in vivo is shown but it is only one of many variations that could be used to optimize the levels of detectable Aβ. […] After 4 h, the animals were sacrificed and Aβ levels were analysed.
Blood was collected by decapitation and exsanguinations in EDTA-treated collection tubes. […] The left hemisphere was stored at −18° C. for quantitative analysis of test compound levels. […]
Mouse brains from non-transgenic animals were resuspended in 8 volumes of 0.4% DEA (diethylamine)/50 mM NaCl containing protease inhibitors (Roche-11873580001 or 04693159001) per gram of tissue, e.g. for 0.158 g brain, add 1.264 ml of 0.4% DEA. […] Nine parts of supernatant were neutralized with 1 part 0.5 M Tris-HCl pH 6.8 and used to quantify Aβ. […]

## COc1ncc(C#N)c2c1C[C@]1(c3ccccc3F)N=C(N)SC[C@@H]1C2 (racemic) [Compound 22]
  Aβ40 (% vs Ctrl)_Mean: 39 % vs Ctrl
  Aβ42 (% vs Ctrl)_Mean: 32 % vs Ctrl
